Results: the supplement of paper PMC10949913

Key:
Settings in all cases: 48 h
[1] = system: CU-ACC2; test: AC50 viability; higher = less potent
In short: (§1)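 After 48 h of treatment with 23 nL of each library compound at 11 concentrations, three adrenocortical carcinoma cell lines in 1,536-well plates (500–1,000 cells/well, 5 µL medium) were given CellTiter-Glo for 15 minutes at room temperature. Luminescence was then read and normalised per plate to vehicle and empty-well controls. AC50 and area under the curve were drawn from fitted concentration-response curves of inhibitory or non-responding classes only.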

[2] = system: CU-ACC2; test: area under concentration-response curve (viability) (AUC (a.u.)); higher = less active
In short: as §1

[3] = system: CU-ACC1; test: AC50 viability; higher = less potent
In short: as §1

[4] = system: NCI-H295R; test: AC50 viability; higher = less potent
In short: as §1

[5] = system: CU-ACC1; test: area under concentration-response curve (viability) (AUC (a.u.)); higher = less active
In short: as §1

[6] = system: NCI-H295R; test: as above
In short: as §1

Row | Structure (SMILES) | AC50 viability [1] | area under concentration-response curve [2] | AC50 viability [3] | AC50 viability [4] | area under concentration-response curve [5] | area under concentration-response curve [6]
1 | CN1CCN(CC1)\C2=N\C3=C(NC4=C2C=CC=C4)C=CC(=C3)Cl | 33.2 µM | 398 |  |  |  | 
2 | CN(C)c1ccc2nc3ccc(N(C)C)cc3[s+]c2c1.[Cl-] | 20.9 µM | 482 |  |  |  | 
3 | CC[C@H](CO)Nc1nc(NCc2ccccc2)c2ncn(C(C)C)c2n1 | 20.9 µM | 582 |  |  |  | 
4 | CN1CCN(c2cccc(Nc3nc4c(-c5ccc([S+](C)(=O)[O-])cc5)cccn4n3)c2)CC1 | 20.9 µM | 552 |  |  |  | 
5 | N#CCNC(=O)c1ccc(-c2ccnc(Nc3ccc(N4CCOCC4)cc3)n2)cc1 | 14.8 µM | 514 |  |  |  | 
6 | CC1(C)CC[C@@]2(CC[C@]3(C)[C@@H]([C@@H]2C1)C(=O)\C=C\4[C@@]3(C)CC[C@H]5C(C)(C)C(=O)\C(=C/[C@]45C)C#N)NC(=O)C(C)(F)F | 23.5 µM | 606 |  |  |  | 
7 | Clc1ccc(C(Cn2ccnc2)OCc2ccc(Sc3ccccc3)cc2)c(Cl)c1 (stereo not drawn) | 23.5 µM | 528 |  |  |  | 
8 | CN(C)c1ccc(Nc2nc(N)n(C(=O)c3c(F)cccc3F)n2)cc1 | 16.6 µM | 553 |  |  |  | 
9 | Cn1c(=O)n(-c2ccc(C(C)(C)C#N)cc2)c2c3cc(-c4cnc5ccccc5c4)ccc3ncc21 |  | 623 | 0.108 µM | 0.171 µM | 471 | 510
10 | COC1(c2sc3c(N4CCOCC4)nc(-c4cnc(N)nc4)nc3c2C)COC1 |  | 374 | 0.525 µM | 0.372 µM | 287 | 322
11 | FC(F)(F)c1ccc(C/N=c2\ccc(Cc3c[nH]c4ncccc34)c[nH]2)cc1 |  | 597 | 16.6 µM | 11.8 µM | 511 | 541
12 | Cc1nc(N)ncc1-c1nc(N2CCOCC2)c2sc(C(C)(C)O)cc2n1 |  | 488 | 8.33 µM | 4.68 µM | 333 | 475
13 | NC1=NC=C(C=C1)C2=CC=C3N=CC\4=C(N(C(=O)\C=C4)C5=CC(=CC=C5)C(F)(F)F)C3=C2 |  | 387 | 0.235 µM | 0.0833 µM | 314 | 294
14 | Cc1cnc(Nc2ccc(N3CCN(C)CC3)cc2)nc1Nc1cccc([S+](=O)([O-])NC(C)(C)C)c1 |  | 529 | 14.8 µM | 9.34 µM | 466 | 421
15 | CC1=C(C)C2=C(S1)[N]3C(=NN=C3[C@H](CC(=O)OC(C)(C)C)/N=C2/C4=CC=C(Cl)C=C4)C |  | 553 | 18.6 µM | 16.6 µM | 432 | 520
16 | O=C(Nc1cc(Cl)cc2c1[nH]c1cnccc12)c1cccnc1 | 0.182 µM | 402 |  |  |  | 
17 | ONC(=O)C1=CC=C(C=C1)C/2=N/C3=CC=CC=C3OC4=C2C=CC=C4 |  | 507 | 16.6 µM | 16.6 µM | 362 | 557
18 | O=C1NC(=O)[C@@H](c2c[nH]c3ccccc23)[C@H]1c1cn2c3c(cccc13)CCC2 |  | 611 | 20.9 µM | 0.59 µM | 494 | 504
19 | C=CC(=O)Nc1cccc(C)c1Nc1ncc2cc(-c3c(Cl)c(OC)cc(OC)c3Cl)ccc2n1 | 6.61 µM | 475 |  |  |  | 
20 | N=C(N)c1ccc(OCCCCCOc2ccc(C(=N)N)cc2)cc1 |  | 561 | 13.2 µM | 14.8 µM | 437 | 453

Row | Structure (SMILES) | AC50 viability [1] | area under concentration-response curve [2] | AC50 viability [3] | AC50 viability [4] | area under concentration-response curve [5] | area under concentration-response curve [6]
21 | FC1=CC2=C3[N](CCN(CC3=C1)C(=O)N4CCCCC4)C=C2C/5=C(C(=O)NC5=O)\C6=CN=C7C=CC=C[N]67 | 18.6 µM | 549 |  |  |  | 
22 | Cc1cc(Nc2ncnc3ccc(-c4ccc(CNCC[S+](C)(=O)[O-])o4)cc23)ccc1Oc1ccn2ncnc2c1 |  | 355 | 23.5 µM | 8.33 µM | 386 | 392
23 | CC1=C(C)C\2=C(S1)[N]3C(=NN=C3[C@H](CC(=O)NC4=CC=C(OCCOCCOCCOCCNC5=CC=CC6=C5C(=O)N(C7CCC(=O)NC7=O)C6=O)C=C4)\N=C2C8=CC=C(Cl)C=C8)C (stereo partly drawn) |  | 484 | 0.417 µM | 1.86 µM | 443 | 457
24 | Cn1cc(/C=C/C(=O)c2cccc(F)c2)cc1/C=C/C(=O)NO |  | 513 | 5.9 µM | 8.33 µM | 428 | 439
25 | CC(C)(C)NC(=O)c1cncn1C1CCN(c2ccc(-c3nnc(C(F)(F)F)o3)cn2)CC1 |  | 539 | 1.66 µM | 7.42 µM | 381 | 475
26 | COc1cc(/C=C/C(=O)CC(=O)/C=C/c2ccc(O)c(OC)c2)ccc1O |  | 591 | 23.5 µM | 26.3 µM | 548 | 545
27 | CC/1=C/C(=O)N(O)/C(=C1)C2CCCCC2 |  | 570 | 10.5 µM | 7.42 µM | 505 | 528
28 | C[C@H](NC(=O)c1sccc1OCc1ccc(Cl)cc1)c1ccccc1 |  | 571 | 10.5 µM | 20.9 µM | 456 | 504
29 | Nc1n[n+]([O-])c2ccccc2[n+]1[O-] |  | 617 | 29.5 µM | 20.9 µM | 474 | 529
30 | FC(F)c1nc2ccccc2n1-c1nc(N2CCOCC2)nc(N2CCOCC2)n1 |  | 487 | 0.59 µM | 0.934 µM | 413 | 399
31 | Fc1ccc(-c2csc3ncnc(NCc4ccc5c(c4)OCO5)c23)cc1 |  | 532 | 3.32 µM | 20.9 µM | 390 | 427
32 | COc1cc(C(=O)NC(=N)Nc2ccc(C)c(NC(=O)c3ccc(-c4ccccc4)cc3)c2)cc(OC)c1OC |  | 489 | 10.5 µM | 13.2 µM | 403 | 399
33 | O=C([O-])C[C@H](O)C[C@H](O)/C=C/c1c(C2CC2)nc2ccccc2c1-c1ccc(F)cc1 |  | 478 | 4.68 µM | 10.5 µM | 394 | 464
34 | COc1ccc(CCN(C)CCCC(C#N)(c2ccc(OC)c(OC)c2)C(C)C)cc1OC (stereo not drawn) |  | 490 | 29.5 µM | 23.5 µM | 397 | 397
35 | C[S+](=O)([O-])N1CCc2c(-c3cnc(N)nc3)nc(N3CCOCC3)nc21 |  | 345 | 1.18 µM | 0.417 µM | 403 | 389
36 | C[S+](=O)([O-])c1cccc(CNc2nc(Nc3ccc4c(c3)CCC(=O)N4)ncc2C(F)(F)F)c1 | 23.5 µM | 467 |  |  |  | 
37 | COc1cc2nc(-c3ccc(N4CCN(C)CC4)cc3)nc(NCCN3CCOCC3)c2cc1OC | 3.72 µM | 397 |  |  |  | 
38 | CC(C)(C)c1[nH]cnc1/C=c1\[nH]c(=O)/c(=C/c2ccccc2)[nH]c1=O |  | 398 | 18.6 µM | 0.0372 µM | 490 | 434
39 | CNC(=O)Nc1ccc(-c2nc(N3CC4CCC(C3)O4)c3cnn(C4CCC5(CC4)OCCO5)c3n2)cc1 |  | 520 | 0.148 µM | 1.05 µM | 404 | 455
40 | O=C(O)[C@H](Cc1c[nH]c2ccccc12)N1C(=O)c2ccccc2C1=O | 37.2 µM | 338 |  |  |  | 

Row | Structure (SMILES) | AC50 viability [1] | area under concentration-response curve [2] | AC50 viability [3] | AC50 viability [4] | area under concentration-response curve [5] | area under concentration-response curve [6]
41 | COc1cc(OC2CCN(C)CC2)ccc1Nc1ncc2c(n1)n(C1CCCC1)c(=O)n2C |  | 619 | 26.3 µM | 23.5 µM | 447 | 528
42 | COc1ncc(Nc2ncc([C@H](C)N3CCN([S+](C)(=O)[O-])CC3)cc2-c2nc(C)nc(N)n2)cc1F |  | 473 | 1.32 µM | 0.934 µM | 387 | 392
43 | OC(c1cc(C(F)(F)F)nc2c(C(F)(F)F)cccc12)C1CCCCN1 (stereo not drawn) |  | 619 | 23.5 µM | 20.9 µM | 501 | 527
44 | NC(=O)c1cccc2nc(-c3ccc([C@H]4CCCN4)cc3F)[nH]c12 |  | 576 | 8.33 µM | 7.42 µM | 453 | 464
45 | CC(=O)Nc1cc(Oc2ccc3c(nc(Nc4ccc(F)cc4F)n3C)c2C)ccn1 |  | 544 | 18.6 µM | 11.8 µM | 484 | 482
46 | COc1c(N2C[C@@H]3CCCN[C@@H]3C2)c(F)cc2c(=O)c(C(=O)O)cn(C3CC3)c12.Cl.O |  | 484 | 0.525 µM | 0.118 µM | 400 | 399
47 | CCCOc1ccc(CCc2nc3cc(-c4c(C)noc4C)ccc3n2CCN2CCOCC2)cc1 |  | 567 | 14.8 µM | 20.9 µM | 482 | 479
48 | COc1cc(OC)cc(N(CCNC(C)C)c2ccc3ncc(-c4cnn(C)c4)nc3c2)c1 |  | 603 | 23.5 µM | 18.6 µM | 499 | 526
49 | COC(=O)Nc1ccc(-c2nc(N3CCOCC3)c3cnn(C4CCN(C(=O)OC)CC4)c3n2)cc1 |  | 573 | 2.95 µM | 2.95 µM | 399 | 485
50 | CCOc1cc(CC(=O)N[C@@H](CC(C)C)c2ccccc2N2CCCCC2)ccc1C(=O)O |  | 240 | 0.0059 µM | 5.25 µM | 221 | 188
51 | Cc1ccc(NC(=O)c2ccc(CN3CCNCC3)cc2)cc1Nc1nccc(-c2cccnc2)n1 |  | 600 | 6.61 µM | 26.3 µM | 496 | 518
52 | O=C(CCCCCCC(=O)Nc1cccnc1)NO |  | 589 | 9.34 µM | 13.2 µM | 489 | 533
53 | CC1(C)OCCn2c1nc1c(N3CCOCC3)nc(-c3cnc(N)nc3)nc12 |  | 500 | 1.18 µM | 1.86 µM | 395 | 430
54 | O=C(/C=C\n1cnc(-c2cc(C(F)(F)F)cc(C(F)(F)F)c2)n1)N1CC(F)(F)C1 |  | 467 | 1.32 µM | 0.59 µM | 448 | 456
55 | CNC(=O)c1cc(Oc2ccc(NC(=O)Nc3ccc(Cl)c(C(F)(F)F)c3)c(F)c2)ccn1 |  | 596 | 37.2 µM | 20.9 µM | 436 | 545
56 | CC(C)n1nc(-c2ccc3oc(N)nc3c2)c2c(N)ncnc21 |  | 455 | 0.0372 µM | 0.166 µM | 338 | 404
57 | CCC[C@H](NC(=O)[C@@H]1[C@H]2CCC[C@H]2CN1C(=O)[C@@H](NC(=O)[C@@H](NC(=O)c1cnccn1)C1CCCCC1)C(C)(C)C)C(=O)C(=O)NC1CC1 |  | 299 | 0.00105 µM | 33.2 µM | 333 | 285
58 | COC1=C(OCCCN2CCOCC2)C=CC\3=C1/N=C(/NC(=O)C4=CN=C(N)N=C4)N5CC/N=C35 |  | 542 | 0.0382 µM | 0.108 µM | 431 | 452
59 | Cc1nc(-c2cn3c(n2)-c2ccc(-c4cnn(C(C)(C)C(N)=O)c4)cc2OCC3)n(C(C)C)n1 |  | 528 | 0.132 µM | 0.934 µM | 414 | 458
